Test results: ChEMBL document CHEMBL1123110, “Bicyclic and tricyclic analogues of anthramycin” (1985)

Tests used:
Assay type in all cases: functional
Mus musculus [1] = experiment: In vivo activity against P388 lymphocytic leukemia, and the maximum T/C values were reported. T/C >=125 is considered active
Mus musculus [2] = organism: Mus musculus; experiment: Optimal dose required for activity against P388 lymphocytic leukemia.
Mus musculus [3] = organism: Mus musculus; experiment: Optimal dose required for activity against P388 lymphocytic leukemia

| Compound | Max T/C (Mus musculus [1]) | OD (Mus musculus [2]) [mg/kg] | OD (Mus musculus [3]) [mg/kg] |
| --- | --- | --- | --- |
| C/C=C1\C[C@H]2[C@@H](OC)Nc3cc(O)c(OC)cc3C(=O)N2C1 | 188 | 0.2 |  |
| C/C=C/CN1CC=Nc2c(O)cccc2C1=O | 138 | 20 |  |
| O=C1c2ccccc2N=CC2CCCN12 (stereo unspecified) | 133 | 8 |  |
| COc1cc2c(cc1O)N[C@H](OC)[C@@H]1CC(O)CN1C2=O (stereo partly specified) | 144 | 6.4 |  |
| O=C1c2cccc(O)c2N=CCN1Cc1ccccc1 | 100 | 16 |  |
| COC(=O)/C=C1/C[C@H]2[C@@H](S(=O)(=O)[O-])Nc3cc(O)c(OC)cc3C(=O)N2C1.[Na+] | 131 | 6 |  |
| CCOC(=O)CN1CC=Nc2c(O)cccc2C1=O | 106 | 40 |  |
| CN1CC=Nc2c(O)cccc2C1=O | 122 | 16 |  |
| O=C1NCC=Nc2c(O)cccc21 | 125 | 16 |  |
| COc1cc2c(cc1O)N[C@@H](OC)[C@@H]1CC(O)CN1C2=O (stereo partly specified) | 100 | 16 |  |
| C=CCN1CC=Nc2c(O)cccc2C1=O | 117 | 80 |  |
| C#CCN1CC=Nc2c(O)cccc2C1=O | 162 | 16 |  |
| COc1cc2c(cc1OC(C)=O)N[C@H](OC)[C@@H]1CC(OC(C)=O)CN1C2=O (stereo partly specified) | 100 |  | 16 |
